The results in this text go back to article doi:10.1101/2025.02.18.638599v1 (biorxiv, 2025).

One test has as its target T1, TolC (Escherichia coli, UniProt P02930).
T1 sequence (P02930 23-493): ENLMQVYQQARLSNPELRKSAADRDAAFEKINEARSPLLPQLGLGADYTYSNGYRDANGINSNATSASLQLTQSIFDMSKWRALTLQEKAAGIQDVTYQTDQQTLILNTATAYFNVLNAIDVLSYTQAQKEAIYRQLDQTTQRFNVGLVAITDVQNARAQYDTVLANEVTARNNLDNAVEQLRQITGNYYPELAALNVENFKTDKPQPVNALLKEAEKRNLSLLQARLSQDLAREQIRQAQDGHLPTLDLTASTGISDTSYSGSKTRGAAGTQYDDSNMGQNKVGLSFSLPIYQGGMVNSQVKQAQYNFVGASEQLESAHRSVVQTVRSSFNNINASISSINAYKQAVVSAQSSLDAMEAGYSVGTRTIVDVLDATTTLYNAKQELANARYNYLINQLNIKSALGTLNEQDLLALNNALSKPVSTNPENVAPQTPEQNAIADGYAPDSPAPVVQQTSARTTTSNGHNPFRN
The test can be described thus: label-free microscale thermophoresis. Type of test: binding. For orientation: In MST a laser heats a spot of the sample, and binding alters the fluorescence response.

A further test addresses T2, AcrB (Escherichia coli, UniProt P31224).
T2 sequence (P31224 1-1049): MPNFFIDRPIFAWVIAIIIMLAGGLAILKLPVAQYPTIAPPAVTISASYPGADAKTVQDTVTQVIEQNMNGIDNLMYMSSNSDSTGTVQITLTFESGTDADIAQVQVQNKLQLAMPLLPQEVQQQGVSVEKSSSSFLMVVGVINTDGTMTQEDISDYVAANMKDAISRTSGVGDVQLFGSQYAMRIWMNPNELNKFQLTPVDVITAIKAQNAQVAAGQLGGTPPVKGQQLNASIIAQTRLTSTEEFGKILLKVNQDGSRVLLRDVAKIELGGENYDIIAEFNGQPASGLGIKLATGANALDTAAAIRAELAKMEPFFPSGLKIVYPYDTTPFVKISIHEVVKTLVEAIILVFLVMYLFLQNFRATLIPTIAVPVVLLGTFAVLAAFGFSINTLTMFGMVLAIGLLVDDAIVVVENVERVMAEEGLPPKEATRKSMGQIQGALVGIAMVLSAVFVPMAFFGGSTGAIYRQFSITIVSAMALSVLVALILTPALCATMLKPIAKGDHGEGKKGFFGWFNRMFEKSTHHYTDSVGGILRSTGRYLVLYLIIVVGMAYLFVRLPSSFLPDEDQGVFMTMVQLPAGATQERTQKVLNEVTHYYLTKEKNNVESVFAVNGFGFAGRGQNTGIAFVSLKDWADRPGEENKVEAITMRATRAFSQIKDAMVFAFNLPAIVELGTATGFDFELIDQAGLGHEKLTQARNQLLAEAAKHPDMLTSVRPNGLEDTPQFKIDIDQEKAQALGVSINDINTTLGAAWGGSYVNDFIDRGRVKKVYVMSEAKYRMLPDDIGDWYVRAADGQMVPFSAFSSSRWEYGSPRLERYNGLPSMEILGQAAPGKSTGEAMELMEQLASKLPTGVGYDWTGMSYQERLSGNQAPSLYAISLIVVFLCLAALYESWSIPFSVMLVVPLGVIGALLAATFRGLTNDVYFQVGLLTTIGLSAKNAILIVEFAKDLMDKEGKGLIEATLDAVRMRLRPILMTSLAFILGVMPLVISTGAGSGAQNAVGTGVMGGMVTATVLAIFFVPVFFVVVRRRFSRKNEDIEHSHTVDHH
The test can be described thus: label-free microscale thermophoresis. Type of test: binding.

The test system of test [1] is E. coli BW25113. The test can be described thus: microbe, parasite or virus in culture. The note with it: Escherichia coli, BW25113, 24 h, read-out: MIC, E. coli BW25113.
For another test, the system named is E. coli JW5503. The test can be described thus: microbe, parasite or virus in culture. The settings on record: Escherichia coli, JW5503, 24 h, read-out: MIC, E. coli JW5503.
Test [2] has as its system E. coli BW25113. Also noted: species or system Escherichia coli. The settings on record: compound alone; 24 h; inhibitor.

What is called Kd is the constant that tells how readily two partners part at equilibrium. Low readings indicate a tighter complex, high ones a looser complex. Consider `CNC(=O)c1ccccc1Nc1nc(Nc2ccc3c(c2OC)CCC[C@H](N2CCN(CCO)CC2)C3)ncc1Cl` [CEP-37440], for which the figures for the Kd on TolC and on AcrB were 282 µM and 198 µM, respectively. Also, the MIC with E. coli BW25113 [1] was > 125 µM; with E. coli JW5503, > 75 µM.
For the molecule `COc1c(N)ccc2c1CCCC(N1CCN(CCO)CC1)C2` (centres unmarked) [LP-115], in the test on E. coli BW25113 [2], the “MIC, E. coli BW25113” value is >125 µM.
